In ChEMBL document CHEMBL1201862, “PubChem BioAssay data set” (2004):
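Test compounds were applied to cells in 96-well plates for 48 hours at 5 doses. The concentration for 50% growth inhibition is given as GI50.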 Active and inactive are the calls of the source. Cut-off read from the data, not from the text of the source: active = GI50 up to about 1.1 µM and inactive = higher.

Columns and labels:
Assay in all cases: inhibition of tumour cell growth, NCI panel, 48 h
[1] = system: A498
[2] = system: A549
[3] = system: CCRF-CEM
[4] = system: HCT-15
[5] = system: HL-60
[6] = system: K562
[7] = system: KM12
[8] = system: LOX IMVI
[9] = system: M14
[10] = system: Malme-3M
[11] = system: OVCAR-5
[12] = system: OVCAR-8
[13] = system: RPMI-8226
[14] = system: RXF 393
[15] = system: SF-539
[16] = system: SK-MEL-5
[17] = system: SK-OV-3
[18] = system: SR
[19] = system: UACC-257
[20] = system: SNB-75

Row | Structure (SMILES) | GI50 [1] | GI50 [2] | GI50 [3] | GI50 [4] [µM] | GI50 [5] | GI50 [6] | GI50 [7] | GI50 [8] | GI50 [9] | GI50 [10] | GI50 [11] | GI50 [12] | GI50 [13] | GI50 [14] | GI50 [15] | GI50 [16] | GI50 [17] | GI50 [18] | GI50 [19] | GI50 [20]
1 | CCOC(=O)c1nc2ccccc2nc1Oc1ccc(OC)cc1 | > 100 µM (inactive) | > 100 µM (inactive) | > 100 µM (inactive) | > 100 | > 100 µM (inactive) | > 100 µM (inactive) | > 100 µM (inactive) | > 100 µM (inactive) | > 100 µM (inactive) | > 100 µM (inactive) | > 100 µM (inactive) | > 100 µM (inactive) | > 100 µM (inactive) | > 100 µM (inactive) | > 100 µM (inactive) | > 100 µM (inactive) | > 100 µM (inactive) | > 100 µM (inactive) | > 100 µM (inactive) | –
2 | NC(=O)N/N=C1/CCC(O)CC1CC(=O)O (stereo unspecified) | > 100 µM (inactive) | > 100 µM (inactive) | 36.3 µM (inactive) | > 100 | 2.7 µM (inactive) | > 100 µM (inactive) | > 100 µM (inactive) | > 100 µM (inactive) | > 100 µM (inactive) | > 100 µM (inactive) | > 100 µM (inactive) | > 100 µM (inactive) | > 100 µM (inactive) | > 100 µM (inactive) | > 100 µM (inactive) | > 100 µM (inactive) | > 100 µM (inactive) | 30.3 µM (inactive) | > 100 µM (inactive) | –
3 | Cc1ccc2nc(SCC(=O)N/N=C3\C(=O)Nc4ccccc43)n(-c3ccccc3)c(=O)c2c1 | 14.9 µM (inactive) | 15.2 µM (inactive) | 18.4 µM (inactive) | 17.2 | 25.5 µM (inactive) | 23.7 µM (inactive) | 13.6 µM (inactive) | 15.6 µM (inactive) | 16.3 µM (inactive) | 20.2 µM (inactive) | 15.8 µM (inactive) | – | 17.6 µM (inactive) | 14.1 µM (inactive) | 5.7 µM (inactive) | 15.7 µM (inactive) | 13.8 µM (inactive) | 19.5 µM (inactive) | 24 µM (inactive) | –
4 | Cc1cc(S(=O)(=O)[N-]/C(=N/S(=O)(=O)c2ccc(Cl)cc2)[n+]2ccc(N(C)C)cc2)c(S)cc1Cl | 26.4 µM (inactive) | – | 46.2 µM (inactive) | 75.7 | 34.8 µM (inactive) | 1.92 µM (inactive) | > 100 µM (inactive) | > 100 µM (inactive) | 35.3 µM (inactive) | – | 61.5 µM (inactive) | > 100 µM (inactive) | 48 µM (inactive) | 84.1 µM (inactive) | 83.4 µM (inactive) | > 100 µM (inactive) | 41.2 µM (inactive) | < 0.01 µM (active) | > 100 µM (inactive) | –
5 | CC(=O)NCCC1CN(C(=O)/C=C\C#C[Si](C)(C)C)c2ccccc21 (stereo unspecified) | 45.3 µM (inactive) | 27.5 µM (inactive) | 11.8 µM (inactive) | 17.2 | 23.3 µM (inactive) | 15.3 µM (inactive) | 24.7 µM (inactive) | 11.9 µM (inactive) | 13.3 µM (inactive) | 13.1 µM (inactive) | 17.1 µM (inactive) | 37.9 µM (inactive) | 10.5 µM (inactive) | 12.1 µM (inactive) | 20.3 µM (inactive) | 6.35 µM (inactive) | 25.3 µM (inactive) | > 10 µM (inactive) | 2.55 µM (inactive) | –
6 | O=C(CCC(=O)C1CCC/C1=N/O)Nc1ccc(Cl)cc1 (stereo unspecified) | > 100 µM (inactive) | > 100 µM (inactive) | > 100 µM (inactive) | > 100 | > 100 µM (inactive) | > 100 µM (inactive) | > 100 µM (inactive) | – | > 100 µM (inactive) | > 100 µM (inactive) | > 100 µM (inactive) | > 100 µM (inactive) | > 100 µM (inactive) | – | > 100 µM (inactive) | > 100 µM (inactive) | > 100 µM (inactive) | > 100 µM (inactive) | > 100 µM (inactive) | 74.5 µM (inactive)
7 | O=C(CCN(C(=O)O)S(=O)(=O)c1ccc(NC(=O)c2ccccc2)cc1)NC1CCCCC1 | > 100 µM (inactive) | > 100 µM (inactive) | 27.6 µM (inactive) | 47.6 | 30.3 µM (inactive) | 27.4 µM (inactive) | > 100 µM (inactive) | > 100 µM (inactive) | > 100 µM (inactive) | > 100 µM (inactive) | > 100 µM (inactive) | > 100 µM (inactive) | 16.5 µM (inactive) | – | > 100 µM (inactive) | > 100 µM (inactive) | > 100 µM (inactive) | 17.8 µM (inactive) | > 100 µM (inactive) | > 100 µM (inactive)
8 | COc1cc([N+](=O)[O-])c(S(=O)(=O)O)cc1-n1nc(-c2ccccc2)n[n+]1-c1cc(S(=O)(=O)[O-])c([N+](=O)[O-])cc1OC | – | > 100 µM (inactive) | > 100 µM (inactive) | > 100 | > 100 µM (inactive) | > 100 µM (inactive) | > 100 µM (inactive) | > 100 µM (inactive) | > 100 µM (inactive) | > 100 µM (inactive) | > 100 µM (inactive) | > 100 µM (inactive) | > 100 µM (inactive) | > 100 µM (inactive) | > 100 µM (inactive) | > 100 µM (inactive) | > 100 µM (inactive) | > 100 µM (inactive) | > 100 µM (inactive) | > 100 µM (inactive)
9 | CCCCN1C(=O)CS/C1=N/Nc1nc2c([nH]1)c(=O)n(C)c(=O)n2C | > 100 µM (inactive) | > 100 µM (inactive) | 22.2 µM (inactive) | > 100 | > 100 µM (inactive) | 30.5 µM (inactive) | 6.35 µM (inactive) | – | 28.5 µM (inactive) | 38.8 µM (inactive) | 14.5 µM (inactive) | – | 42.4 µM (inactive) | > 100 µM (inactive) | 37.8 µM (inactive) | 37.8 µM (inactive) | 6.47 µM (inactive) | 11.9 µM (inactive) | > 100 µM (inactive) | –
10 | c1cc2nnnn2nc1N1CCCC1 | > 100 µM (inactive) | > 100 µM (inactive) | > 100 µM (inactive) | > 100 | > 100 µM (inactive) | > 100 µM (inactive) | > 100 µM (inactive) | > 100 µM (inactive) | > 100 µM (inactive) | – | > 100 µM (inactive) | > 100 µM (inactive) | > 100 µM (inactive) | > 100 µM (inactive) | > 100 µM (inactive) | > 100 µM (inactive) | > 100 µM (inactive) | > 100 µM (inactive) | > 100 µM (inactive) | –
11 | Cc1ccc2c(c1)[n+]([O-])c(N)n[n+]2[O-] | 75.3 µM (inactive) | > 100 µM (inactive) | 91.2 µM (inactive) | 64.9 | > 100 µM (inactive) | > 100 µM (inactive) | > 100 µM (inactive) | 85.3 µM (inactive) | > 100 µM (inactive) | – | > 100 µM (inactive) | > 100 µM (inactive) | > 100 µM (inactive) | – | > 100 µM (inactive) | 37.6 µM (inactive) | > 100 µM (inactive) | > 100 µM (inactive) | > 100 µM (inactive) | 58.1 µM (inactive)
